Laboratory results reported in patent US10561739B2, “Targeted pyrrolobenzodiazapine conjugates” (priority 2010, dated 2020).

How the values were obtained:
Assay type in all cases: cell-based
Caki-1 cells = assay: Free drug 48 hour Cell Titer Glo cytotoxicity, Caki-1; settings: Homo sapiens, Table 3, 48 hours, read-out: IC50 Summary for Free Drugs, Caki-1
Experimental: (§1) Referring to the following Table 3, the activities of compounds 23, 25, are compared to that of compound 11 on 786-O, Caki-1, MCF-7, HL-60, THP-1, HEL, and TF1 cells. Cells were plated in 150 μL growth media per well into black-sided clear-bottom 96-well plates (Costar, Corning) and allowed to settle for 1 hour in the biological cabinet before placing in the incubator at 37° C., 5% CO2. The following day, 4× concentration of drug stocks were prepared, and then titrated as 10-fold serial dilutions producing 8-point dose curves and added at 50 μl per well in duplicate. Cells were then incubated for 48 hours at 37° C., 5% CO2. Cytotoxicity was measure by incubating with 100 μL Cell Titer Glo (Promega) solution for 1 hour, and then luminescence was measured on a Fusion HT plate reader (Perkin Elmer). Data was processed with Excel (Microsoft) and GraphPad (Prism) to produce dose response curves and IC50 values were generated and data collected.

HL-60 cells = assay: Free drug 48 hour Cell Titer Glo cytotoxicity, HL-60; settings: Homo sapiens, Table 3, 48 hours, read-out: IC50 Summary for Free Drugs, HL-60
Experimental: as §1

786-O cells = assay: Free drug 48 hour Cell Titer Glo cytotoxicity, 786-O; settings: Homo sapiens, 786-0, Table 3, 48 hours, read-out: IC50 Summary for Free Drugs, 786-O
Experimental: as §1

HEL cells = assay: Free drug 48 hour Cell Titer Glo cytotoxicity, HEL; settings: Homo sapiens, Table 3, 48 hours, read-out: IC50 Summary for Free Drugs, HEL
Experimental: as §1

A2780 parental cell line = assay: A2780 assay (MTT cytotoxicity); settings: Homo sapiens, 72 hours
Experimental: The A2780 parental cell line was grown in Dulbecco's Modified Eagles' Media (DMEM) containing ˜10% Foetal Calf Serum (FCS) and ˜1% 200 mM L-Glutamine solution and grown in Corning Cellbind 75 cm^2 flasks.
A 190 μl cell suspension was added (at 1×10^4) to each well of columns 2 to 11 of a 96 well plate (Nunc 96F flat bottom TC plate), 190 μl of media was added to each well of columns 1 and 12. The media was Dulbecco's Modified Eagles' Media (DMEM) (which included ˜10% Foetal Calf Serum (FCS) and ˜1% 200 mM L-Glutamine solution).
Plates were incubated overnight at 37° C. before addition of drug if cells were adherent, 200 μM of the test compound solutions (in 100% DMSO) were serially diluted across a 96 well plate. Each resulting point was then further diluted 1/10 into sterile distilled water (SDW).
To the cell negative blanks and compound negative control wells, 10% DMSO was added at 5% v/v. Assay plates were incubated for the following durations at 37° C. in 5% CO2 in a humidified incubator for 72 hours. Following incubation, MTT solution to a final concentration of 1.5 μM was added to each well. The plates were then incubated for a further 4 hours at 37° C. in 5% CO2 in a humidified incubator. […]
Plates were read at 540 nm absorbance using an Envision plate reader. Data was analysed using Microsoft Excel and GraphPad Prism and IC50 values obtained.

THP-1 cells = assay: Free drug 48 hour Cell Titer Glo cytotoxicity, THP-1; settings: Homo sapiens, Table 3, 48 hours, read-out: IC50 Summary for Free Drugs, THP-1
Experimental: as §1

MCF-7 cells [1] = assay: Free drug 48 hour Cell Titer Glo cytotoxicity, MCF-7; settings: Homo sapiens, MCF7, Table 3, 48 hours, read-out: IC50 Summary for Free Drugs, MCF-7
Experimental: as §1

TF1a cells = assay: Free drug 48 hour Cell Titer Glo cytotoxicity, TF1a; settings: TF-1a, Table 3, 48 hours, read-out: IC50 Summary for Free Drugs, TF1a
Experimental: as §1

AML cell line HL60 = assay: Free drug 96-hour resazurin cytotoxicity assay, HL60; settings: Homo sapiens, HL-60, Table 1, 96-hour assay, read-out: IC50 Summary for Free Drugs, HL60
Experimental: (§2) The cytotoxicity of various free drug compounds was tested on a renal cell cancer cell line, 786-O, a Hodgkin lymphoma cell line, L428 and two AML cell lines, HL60 and HEL.
(§3) For a 96-hour assay, cells cultured in log-phase growth were seeded for 24 h in 96-well plates containing 150 μL RPMI 1640 supplemented with 20% FBS. Serial dilutions of test article (i.e., free drug) in cell culture media were prepared at 4× working concentration; 50 μL of each dilution was added to the 96-well plates. Following addition of test article, the cells were incubated with test articles for 4 days at 37° C. Resazurin was then added to each well to achieve a 50 μM final concentration, and the plates were incubated for an additional 4 h at 37° C. The plates were then read for the extent of dye reduction on a Fusion HT plate reader (Packard Instruments, Meridien, Conn., USA) with excitation and emission wavelengths of 530 and 590 nm, respectively. The IC50 value, determined in triplicate, is defined here as the concentration that results in a 50% reduction in cell growth relative to untreated controls.

AML cell line HEL = assay: Free drug 96-hour resazurin cytotoxicity assay, HEL; settings: Table 1, 96-hour assay, read-out: IC50 Summary for Free Drugs, HEL
Experimental: as §2, §3

[2] = tested on: renal cell cancer cell line, 786-O; assay: Free drug 96-hour resazurin cytotoxicity assay, 786-O; settings: Homo sapiens, 786-0, Table 1, 96-hour assay, read-out: IC50 Summary for Free Drugs, 786-O
Experimental: as §2, §3

MCF-7 cells [3] = assay: Free drug cytotoxicity assay, MCF-7 (Table 2); settings: Homo sapiens, MCF7; Table 2; read-out: IC50 Summary for Free Drugs, MCF-7
Experimental: as §3
Referring to the following Table 2, the activity of compounds 28, 30 and 32 is shown on L428, 786-O, HEL, HL-60 and MCF-7 cells, as well as the activity for compound 19 on MCF-7 cells.

[4] = tested on: Hodgkin lymphoma cell line, L428; assay: Free drug 96-hour resazurin cytotoxicity assay, L428; settings: Homo sapiens, L-428, Table 1, 96-hour assay, read-out: IC50 Summary for Free Drugs, L428
Experimental: as §2, §3

Structure (SMILES)	IC50 (Caki-1 cells) [nM]	IC50 (HL-60 cells) [nM]	IC50 (786-O cells) [nM]	IC50 (HEL cells) [nM]	IC50 (A2780 parental cell line) [nM]	IC50 (THP-1 cells) [nM]	IC50 (MCF-7 cells [1]) [nM]	IC50 (TF1a cells) [nM]	IC50 (AML cell line HL60) [nM]	IC50 (AML cell line HEL) [nM]	IC50 [2] [nM]	IC50 (MCF-7 cells [3]) [nM]	IC50 [4] [nM]
COc1ccc(C2=CN3C(=O)c4cc(OC)c(OCCCOc5cc6c(cc5OC)C(=O)N5C=C(c7ccc(N)cc7)C[C@H]5C=N6)cc4N=C[C@@H]3C2)cc1 [Compound 11, (S)-2-(4-aminophenyl)-7-methoxy-8-(3-((S)-7-methoxy-2-(4-methoxyphenyl)-5-oxo-5,11a-dihydro-1H-pyrrolo[2,1-c][1,4]benzodiazepine-8-yloxy)propoxy)-1H-pyrrolo[2,1-c][1,4]benzodiazepine-5(11aH)-one]	0.2	0.01	0.4	0.03	11700	1	1	1					
COc1ccc(C2=CN3C(=O)c4cc(OC)c(OCCCOc5cc6c(cc5OC)C(=O)N5C=C(c7cccc(N)c7)C[C@H]5C=N6)cc4N=C[C@@H]3C2)cc1 [Compound 19, (S)-2-(3-aminophenyl)-7-methoxy-8-(3-((S)-7-methoxy-2-(4-methoxyphenyl)-5-oxo-5,11a-dihydro-1H-pyrrolo[2,1-c][1,4]benzodiazepine-8-yloxy)propyloxy)-1H-pyrrolo[2,1-c][1,4]benzodiazepine-5(11aH)-one]									0.6	0.2	0.5	5	1
